Publication PMC4685510, “A Cell Biologist’s Field Guide to Aurora Kinase Inhibitors” (Frontiers in Oncology, 2015)

Experiments:
Experiment in all cases: biochemical
Assay type in all cases: biochemical
[1] = molecular target: T1, 363 human kinases (including Aurora A/B/C) (Homo sapiens, UniProt Q16566); details: CAMK4, [ATP] 10 µM; for remaining activity at 0.1 µM: 100 nM; for remaining activity at 0.1 µM / remaining activity at 0.5 µM: read-out: % Enzyme Activity (relative to DMSO controls)
T1 sequence (Q16566 1-473): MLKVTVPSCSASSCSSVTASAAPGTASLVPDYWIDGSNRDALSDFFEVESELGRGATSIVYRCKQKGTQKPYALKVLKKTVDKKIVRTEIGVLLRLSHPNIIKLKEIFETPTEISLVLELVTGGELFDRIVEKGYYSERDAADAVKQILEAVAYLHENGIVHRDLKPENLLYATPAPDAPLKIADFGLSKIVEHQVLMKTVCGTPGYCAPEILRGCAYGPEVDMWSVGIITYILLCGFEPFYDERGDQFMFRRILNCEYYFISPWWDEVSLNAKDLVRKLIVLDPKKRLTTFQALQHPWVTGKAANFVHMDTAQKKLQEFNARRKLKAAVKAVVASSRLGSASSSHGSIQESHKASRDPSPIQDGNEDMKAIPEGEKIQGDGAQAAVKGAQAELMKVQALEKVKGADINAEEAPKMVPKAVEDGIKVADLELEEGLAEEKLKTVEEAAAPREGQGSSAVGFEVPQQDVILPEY
Source text: (§1) However, the Aurora A/B selectivity ratios derived from our in vitro and in vivo data can be compared to prioritize inhibitors.

[2] = molecular target: 363 human kinases (including Aurora A/B/C) (Homo sapiens, UniProt P45983); details: JNK1; for remaining activity at 0.1 µM: 100 nM; for remaining activity at 0.1 µM / remaining activity at 0.5 µM: read-out: % Enzyme Activity (relative to DMSO controls)
Sequence of 363 human kinases (including Aurora A/B/C) (Homo sapiens, UniProt P45983) (P45983 whole entry): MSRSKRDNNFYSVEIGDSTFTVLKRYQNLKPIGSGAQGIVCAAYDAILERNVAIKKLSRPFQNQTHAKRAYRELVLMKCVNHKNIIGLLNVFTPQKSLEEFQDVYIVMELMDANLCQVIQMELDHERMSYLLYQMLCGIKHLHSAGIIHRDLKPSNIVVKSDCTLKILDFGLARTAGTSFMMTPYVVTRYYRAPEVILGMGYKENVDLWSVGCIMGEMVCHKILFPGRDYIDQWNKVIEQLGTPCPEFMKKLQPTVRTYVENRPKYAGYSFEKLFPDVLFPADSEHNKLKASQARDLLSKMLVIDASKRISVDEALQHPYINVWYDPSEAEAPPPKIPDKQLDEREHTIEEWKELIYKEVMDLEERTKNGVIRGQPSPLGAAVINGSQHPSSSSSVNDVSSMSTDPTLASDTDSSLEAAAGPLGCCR
Source text: as §1

[3] = molecular target: 363 human kinases (including Aurora A/B/C) (Homo sapiens, UniProt Q9Y3S1); details: WNK2; for remaining activity at 0.1 µM: 100 nM; for remaining activity at 0.1 µM / remaining activity at 0.5 µM: read-out: % Enzyme Activity (relative to DMSO controls)
Sequence of 363 human kinases (including Aurora A/B/C) (Homo sapiens, UniProt Q9Y3S1) (Q9Y3S1 whole entry): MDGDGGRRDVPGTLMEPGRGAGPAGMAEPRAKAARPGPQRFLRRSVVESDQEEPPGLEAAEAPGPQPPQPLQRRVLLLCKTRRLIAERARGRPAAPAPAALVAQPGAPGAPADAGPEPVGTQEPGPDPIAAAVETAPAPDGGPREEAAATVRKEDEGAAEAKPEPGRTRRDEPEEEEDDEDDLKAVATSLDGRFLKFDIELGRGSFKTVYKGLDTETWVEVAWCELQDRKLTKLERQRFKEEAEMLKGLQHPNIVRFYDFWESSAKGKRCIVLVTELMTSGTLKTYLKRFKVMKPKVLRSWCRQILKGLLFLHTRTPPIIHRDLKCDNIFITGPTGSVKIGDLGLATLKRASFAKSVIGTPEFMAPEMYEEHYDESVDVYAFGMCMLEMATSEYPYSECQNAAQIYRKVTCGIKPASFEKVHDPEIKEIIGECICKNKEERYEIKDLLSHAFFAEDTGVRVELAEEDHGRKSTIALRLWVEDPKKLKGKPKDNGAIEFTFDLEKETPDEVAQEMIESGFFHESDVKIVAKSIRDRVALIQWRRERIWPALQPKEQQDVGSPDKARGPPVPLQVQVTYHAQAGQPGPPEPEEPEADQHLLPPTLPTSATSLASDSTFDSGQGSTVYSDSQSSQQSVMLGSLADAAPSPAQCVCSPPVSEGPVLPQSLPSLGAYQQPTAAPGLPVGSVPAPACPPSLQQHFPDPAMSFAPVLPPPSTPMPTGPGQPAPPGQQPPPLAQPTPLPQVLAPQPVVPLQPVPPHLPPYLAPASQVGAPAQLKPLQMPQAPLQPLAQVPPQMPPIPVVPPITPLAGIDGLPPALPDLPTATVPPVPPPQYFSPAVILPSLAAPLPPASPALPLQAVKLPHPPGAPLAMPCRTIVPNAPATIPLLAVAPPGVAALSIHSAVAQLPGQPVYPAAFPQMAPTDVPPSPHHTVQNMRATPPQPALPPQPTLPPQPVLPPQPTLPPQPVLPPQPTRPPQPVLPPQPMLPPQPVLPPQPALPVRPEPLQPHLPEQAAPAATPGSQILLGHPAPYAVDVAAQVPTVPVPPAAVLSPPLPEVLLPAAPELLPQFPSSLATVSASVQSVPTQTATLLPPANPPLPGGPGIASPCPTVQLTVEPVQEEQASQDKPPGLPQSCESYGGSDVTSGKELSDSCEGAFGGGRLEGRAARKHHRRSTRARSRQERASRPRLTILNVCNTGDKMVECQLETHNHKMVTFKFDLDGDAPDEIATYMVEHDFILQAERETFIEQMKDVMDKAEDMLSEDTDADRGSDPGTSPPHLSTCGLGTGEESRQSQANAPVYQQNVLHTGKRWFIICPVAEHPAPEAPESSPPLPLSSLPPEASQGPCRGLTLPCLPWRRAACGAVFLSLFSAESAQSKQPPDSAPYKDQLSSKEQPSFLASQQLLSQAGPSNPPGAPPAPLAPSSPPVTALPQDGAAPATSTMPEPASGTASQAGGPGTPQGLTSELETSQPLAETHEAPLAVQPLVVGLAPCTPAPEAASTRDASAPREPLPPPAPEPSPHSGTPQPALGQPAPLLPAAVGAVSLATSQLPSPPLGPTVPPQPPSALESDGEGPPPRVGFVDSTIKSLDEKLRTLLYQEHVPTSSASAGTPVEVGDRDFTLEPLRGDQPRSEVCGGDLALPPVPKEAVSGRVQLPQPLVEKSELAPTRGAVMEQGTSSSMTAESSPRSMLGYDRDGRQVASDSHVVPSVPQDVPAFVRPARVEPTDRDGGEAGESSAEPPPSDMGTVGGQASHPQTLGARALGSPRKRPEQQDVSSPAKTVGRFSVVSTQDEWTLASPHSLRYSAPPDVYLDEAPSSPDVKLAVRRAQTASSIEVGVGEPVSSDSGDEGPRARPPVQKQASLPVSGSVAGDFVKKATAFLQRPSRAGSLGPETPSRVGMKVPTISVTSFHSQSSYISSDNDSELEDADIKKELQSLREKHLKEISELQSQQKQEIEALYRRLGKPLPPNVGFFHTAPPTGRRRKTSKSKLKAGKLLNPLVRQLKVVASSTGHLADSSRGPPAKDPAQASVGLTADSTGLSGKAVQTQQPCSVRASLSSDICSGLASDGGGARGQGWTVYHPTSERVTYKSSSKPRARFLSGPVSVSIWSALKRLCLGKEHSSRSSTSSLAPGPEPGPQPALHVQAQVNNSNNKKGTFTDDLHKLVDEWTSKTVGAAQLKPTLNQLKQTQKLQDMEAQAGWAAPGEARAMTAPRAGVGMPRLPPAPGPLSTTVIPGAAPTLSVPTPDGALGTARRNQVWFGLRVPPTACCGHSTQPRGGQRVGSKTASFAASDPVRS
Source text: as §1

[4] = molecular target: 363 human kinases (including Aurora A/B/C) (Homo sapiens, UniProt P41240); details: CSK, [ATP] 15 µM; for remaining activity at 0.1 µM: 100 nM; for remaining activity at 0.1 µM / remaining activity at 0.5 µM: read-out: % Enzyme Activity (relative to DMSO controls)
Sequence of 363 human kinases (including Aurora A/B/C) (Homo sapiens, UniProt P41240) (P41240 whole entry): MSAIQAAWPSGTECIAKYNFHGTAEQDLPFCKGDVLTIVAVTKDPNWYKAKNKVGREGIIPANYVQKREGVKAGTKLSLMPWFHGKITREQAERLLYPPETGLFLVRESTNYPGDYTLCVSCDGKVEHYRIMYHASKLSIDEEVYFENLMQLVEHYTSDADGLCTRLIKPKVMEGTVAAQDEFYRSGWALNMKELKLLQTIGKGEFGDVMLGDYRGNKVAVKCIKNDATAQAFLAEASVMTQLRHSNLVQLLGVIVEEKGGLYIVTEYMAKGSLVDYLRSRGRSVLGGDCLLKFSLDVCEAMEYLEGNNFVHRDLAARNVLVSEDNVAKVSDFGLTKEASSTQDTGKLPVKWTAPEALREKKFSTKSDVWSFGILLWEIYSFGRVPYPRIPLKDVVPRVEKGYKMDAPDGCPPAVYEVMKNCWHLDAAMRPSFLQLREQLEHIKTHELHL
Source text: as §1

[5] = molecular target: 363 human kinases (including Aurora A/B/C) (Homo sapiens, UniProt P32298); details: GRK4; for remaining activity at 0.1 µM: 100 nM; for remaining activity at 0.1 µM / remaining activity at 0.5 µM: read-out: % Enzyme Activity (relative to DMSO controls)
Sequence of 363 human kinases (including Aurora A/B/C) (Homo sapiens, UniProt P32298) (P32298 whole entry): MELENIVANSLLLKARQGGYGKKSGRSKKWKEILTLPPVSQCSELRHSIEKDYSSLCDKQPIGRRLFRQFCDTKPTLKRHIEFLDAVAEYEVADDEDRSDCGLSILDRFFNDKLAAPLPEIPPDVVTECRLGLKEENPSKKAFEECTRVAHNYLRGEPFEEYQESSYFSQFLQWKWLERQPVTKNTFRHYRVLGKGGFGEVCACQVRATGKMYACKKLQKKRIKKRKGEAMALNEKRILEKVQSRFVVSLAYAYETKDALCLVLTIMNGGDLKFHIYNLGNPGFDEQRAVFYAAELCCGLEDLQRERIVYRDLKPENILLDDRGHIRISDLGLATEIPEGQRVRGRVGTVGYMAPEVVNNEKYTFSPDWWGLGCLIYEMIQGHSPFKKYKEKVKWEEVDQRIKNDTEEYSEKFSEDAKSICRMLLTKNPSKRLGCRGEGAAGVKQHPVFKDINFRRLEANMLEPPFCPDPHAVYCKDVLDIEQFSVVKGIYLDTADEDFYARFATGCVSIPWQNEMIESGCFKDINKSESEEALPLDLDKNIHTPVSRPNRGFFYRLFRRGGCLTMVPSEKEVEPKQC
Source text: as §1

[6] = molecular target: 363 human kinases (including Aurora A/B/C) (Homo sapiens, UniProt Q13627); details: DYRK1/DYRK1A, [ATP] 50 µM; for remaining activity at 0.1 µM: 100 nM; for remaining activity at 0.1 µM / remaining activity at 0.5 µM: read-out: % Enzyme Activity (relative to DMSO controls)
Source text: as §1

[7] = molecular target: T2, 363 human kinases (including Aurora A/B/C) (Homo sapiens, UniProt Q9NRH2); details: SNRK; for remaining activity at 0.1 µM: 100 nM; for remaining activity at 0.1 µM / remaining activity at 0.5 µM: read-out: % Enzyme Activity (relative to DMSO controls)
T2 sequence (Q9NRH2 1-765): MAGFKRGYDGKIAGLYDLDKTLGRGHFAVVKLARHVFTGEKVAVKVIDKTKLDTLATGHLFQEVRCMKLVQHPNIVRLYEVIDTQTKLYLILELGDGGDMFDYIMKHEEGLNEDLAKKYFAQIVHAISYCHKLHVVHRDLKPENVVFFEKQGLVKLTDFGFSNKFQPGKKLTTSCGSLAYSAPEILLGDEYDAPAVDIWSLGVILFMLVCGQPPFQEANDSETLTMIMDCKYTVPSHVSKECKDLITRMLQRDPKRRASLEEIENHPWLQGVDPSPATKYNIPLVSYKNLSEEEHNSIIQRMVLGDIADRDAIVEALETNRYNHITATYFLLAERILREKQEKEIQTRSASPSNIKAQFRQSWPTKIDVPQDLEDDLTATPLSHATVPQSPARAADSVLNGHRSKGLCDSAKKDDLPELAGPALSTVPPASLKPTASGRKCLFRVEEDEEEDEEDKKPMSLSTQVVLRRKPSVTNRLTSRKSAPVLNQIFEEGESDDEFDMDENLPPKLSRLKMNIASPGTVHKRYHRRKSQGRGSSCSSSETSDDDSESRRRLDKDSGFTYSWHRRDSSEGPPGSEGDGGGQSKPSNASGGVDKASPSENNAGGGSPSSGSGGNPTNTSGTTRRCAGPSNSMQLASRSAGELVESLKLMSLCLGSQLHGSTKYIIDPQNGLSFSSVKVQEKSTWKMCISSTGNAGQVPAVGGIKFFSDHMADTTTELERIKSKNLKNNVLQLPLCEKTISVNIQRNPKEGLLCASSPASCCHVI
Source text: as §1

[8] = molecular target: 363 human kinases (including Aurora A/B/C) (Homo sapiens, UniProt Q15303); details: ERBB4/HER4, [ATP] 2.5 µM; for remaining activity at 0.1 µM: 100 nM; for remaining activity at 0.1 µM / remaining activity at 0.5 µM: read-out: % Enzyme Activity (relative to DMSO controls)
Source text: as §1

[9] = molecular target: T3, 363 human kinases (including Aurora A/B/C) (Homo sapiens, UniProt Q99759); details: MEKK3; for remaining activity at 0.1 µM: 100 nM; for remaining activity at 0.1 µM / remaining activity at 0.5 µM: read-out: % Enzyme Activity (relative to DMSO controls)
T3 sequence (Q99759 1-626): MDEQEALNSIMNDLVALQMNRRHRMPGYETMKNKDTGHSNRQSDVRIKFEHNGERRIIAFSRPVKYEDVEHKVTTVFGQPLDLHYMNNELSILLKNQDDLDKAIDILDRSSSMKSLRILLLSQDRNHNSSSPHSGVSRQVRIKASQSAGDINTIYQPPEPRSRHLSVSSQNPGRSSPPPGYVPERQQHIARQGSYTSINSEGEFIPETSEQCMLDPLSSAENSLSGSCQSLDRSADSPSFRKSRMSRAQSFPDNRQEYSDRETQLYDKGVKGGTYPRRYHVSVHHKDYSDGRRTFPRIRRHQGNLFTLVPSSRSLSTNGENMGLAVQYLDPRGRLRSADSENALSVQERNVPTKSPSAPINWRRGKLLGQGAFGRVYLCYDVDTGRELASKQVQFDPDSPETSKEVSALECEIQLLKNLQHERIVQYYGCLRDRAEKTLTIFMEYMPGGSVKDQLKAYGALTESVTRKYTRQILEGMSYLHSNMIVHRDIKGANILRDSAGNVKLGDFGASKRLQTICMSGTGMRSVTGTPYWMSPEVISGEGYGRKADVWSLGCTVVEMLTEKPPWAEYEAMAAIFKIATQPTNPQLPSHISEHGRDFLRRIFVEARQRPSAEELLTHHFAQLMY
Source text: as §1

[10] = molecular target: 363 human kinases (including Aurora A/B/C) (Homo sapiens, UniProt Q9Y463); details: DYRK1B, [ATP] 20 µM; for remaining activity at 0.1 µM: 100 nM; for remaining activity at 0.1 µM / remaining activity at 0.5 µM: read-out: % Enzyme Activity (relative to DMSO controls)
Sequence of 363 human kinases (including Aurora A/B/C) (Homo sapiens, UniProt Q9Y463) (Q9Y463 whole entry): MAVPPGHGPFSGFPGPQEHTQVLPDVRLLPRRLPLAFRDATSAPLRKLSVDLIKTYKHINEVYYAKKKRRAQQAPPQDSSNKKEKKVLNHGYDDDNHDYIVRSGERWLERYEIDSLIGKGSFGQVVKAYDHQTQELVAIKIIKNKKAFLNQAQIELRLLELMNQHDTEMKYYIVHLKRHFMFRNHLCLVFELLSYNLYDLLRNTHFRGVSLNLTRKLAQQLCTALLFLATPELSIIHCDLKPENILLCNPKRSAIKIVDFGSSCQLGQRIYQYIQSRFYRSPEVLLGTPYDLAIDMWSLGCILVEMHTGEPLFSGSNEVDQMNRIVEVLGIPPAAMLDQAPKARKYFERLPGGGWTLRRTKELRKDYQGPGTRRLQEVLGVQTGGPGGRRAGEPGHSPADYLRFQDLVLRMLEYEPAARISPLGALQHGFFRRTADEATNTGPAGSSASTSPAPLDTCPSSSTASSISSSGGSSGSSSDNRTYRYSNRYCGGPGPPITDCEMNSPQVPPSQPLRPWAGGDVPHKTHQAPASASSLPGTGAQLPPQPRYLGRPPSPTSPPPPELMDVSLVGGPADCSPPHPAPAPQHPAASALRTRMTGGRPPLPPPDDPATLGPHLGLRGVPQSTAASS
Source text: as §1

[11] = molecular target: 363 human kinases (including Aurora A/B/C) (Homo sapiens, UniProt Q9H1R3); details: MLCK2/MYLK2; for remaining activity at 0.1 µM: 100 nM; for remaining activity at 0.1 µM / remaining activity at 0.5 µM: read-out: % Enzyme Activity (relative to DMSO controls)
Source text: as §1

[12] = molecular target: 363 human kinases (including Aurora A/B/C) (Homo sapiens, UniProt P23443); details: p70S6K/RPS6KB1; for remaining activity at 0.1 µM: 100 nM; for remaining activity at 0.1 µM / remaining activity at 0.5 µM: read-out: % Enzyme Activity (relative to DMSO controls)
Sequence of 363 human kinases (including Aurora A/B/C) (Homo sapiens, UniProt P23443) (P23443 whole entry): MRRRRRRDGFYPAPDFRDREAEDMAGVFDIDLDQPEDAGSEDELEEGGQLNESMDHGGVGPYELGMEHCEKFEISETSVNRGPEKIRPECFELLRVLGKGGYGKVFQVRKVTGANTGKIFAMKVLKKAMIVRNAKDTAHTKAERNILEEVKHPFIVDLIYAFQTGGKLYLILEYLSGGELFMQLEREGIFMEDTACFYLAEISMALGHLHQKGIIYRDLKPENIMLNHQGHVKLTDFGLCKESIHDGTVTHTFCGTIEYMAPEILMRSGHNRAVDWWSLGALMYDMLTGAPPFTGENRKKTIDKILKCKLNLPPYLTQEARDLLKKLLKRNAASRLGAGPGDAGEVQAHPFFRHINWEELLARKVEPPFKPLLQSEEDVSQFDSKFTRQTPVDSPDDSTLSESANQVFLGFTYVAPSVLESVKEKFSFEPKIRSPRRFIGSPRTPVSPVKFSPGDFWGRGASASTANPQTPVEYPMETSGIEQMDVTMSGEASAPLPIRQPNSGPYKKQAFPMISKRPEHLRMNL
Source text: as §1

Row | SMILES | remaining activity at 0.1 µM [1] | remaining activity at 0.1 µM [2] | remaining activity at 0.1 µM [3] | remaining activity at 0.1 µM [4] | remaining activity at 0.1 µM [5] | remaining activity at 0.1 µM [6] | remaining activity at 0.1 µM [7] | remaining activity at 0.1 µM [8] | remaining activity at 0.1 µM [9] | remaining activity at 0.1 µM [10] | remaining activity at 0.1 µM [11] | remaining activity at 0.1 µM [12] | remaining activity at 0.5 µM ([1]; 500 nM) | remaining activity at 0.5 µM ([2]; 500 nM) | remaining activity at 0.5 µM ([3]; 500 nM) | remaining activity at 0.5 µM ([4]; 500 nM) | remaining activity at 0.5 µM ([5]; 500 nM) | remaining activity at 0.5 µM ([6]; 500 nM) | remaining activity at 0.5 µM ([7]; 500 nM) | remaining activity at 0.5 µM ([8]; 500 nM) | further results
1 | CCn1cc(-c2ccnc3[nH]c(-c4cccc(CN(C)C)c4)cc23)c(-c2ccc(NC(=O)N(C)C)cc2)n1 [GSK1070916] | 98.5% | 98% | 92.3% | 99.8% | 95.2% | 97.5% | 89.8% | 87.3% | 97.2% | 99.6% | 96.2% | 101% | – | – | – | – | – | – | – | – | –
2 | O=C(O)[C@]1(Cc2cccc(Nc3nccs3)n2)CC[C@@H](Oc2cccc(Cl)c2F)CC1 [MK-5108] | 93.4% | 61.8% | 83% | 93.9% | 96.7% | 100% | 95.3% | 97.1% | 96.3% | 91.7% | 102% | 98.3% | 99.8% | 29.3% | 33.8% | 67.9% | 92.9% | 89.7% | 88.9% | 77.7% | remaining activity at 0.5 µM ([9]; 500 nM): 117%; remaining activity at 0.5 µM ([10]; 500 nM): 68.3%; remaining activity at 0.5 µM ([11]; 500 nM): 97.8%; remaining activity at 0.5 µM ([12]; 500 nM): 97.7%
3 | O=C(c1cccc(Cl)c1F)N1CCN(Cc2cccc(Nc3nccs3)n2)CC1 [MK-8745] | – | – | – | – | – | – | – | – | – | – | – | – | 102% | 13.8% | 102% | 95.8% | 94.8% | 96.7% | 92.9% | 94.9% | % Enzyme Activity (relative to DMSO controls) ([1]; 500 nM): 101.38%; % Enzyme Activity (relative to DMSO controls) ([2]; 500 nM): 13.45%; % Enzyme Activity (relative to DMSO controls) ([3]; 500 nM): 101.71%; % Enzyme Activity (relative to DMSO controls) ([4]; 500 nM): 94.61%; % Enzyme Activity (relative to DMSO controls) ([5]; 500 nM): 94.47%; % Enzyme Activity (relative to DMSO controls) ([6]; 500 nM): 93.95%; % Enzyme Activity (relative to DMSO controls) ([7]; 500 nM): 90.66%; % Enzyme Activity (relative to DMSO controls) ([8]; 500 nM): 93.35%; % Enzyme Activity (relative to DMSO controls) ([9]; 500 nM): 111.88%; remaining activity at 0.5 µM ([9]; 500 nM): 114%; % Enzyme Activity (relative to DMSO controls) ([10]; 500 nM): 94.80%; remaining activity at 0.5 µM ([10]; 500 nM): 95.3%; % Enzyme Activity (relative to DMSO controls) ([11]; 500 nM): 94.16%; remaining activity at 0.5 µM ([11]; 500 nM): 94.3%; % Enzyme Activity (relative to DMSO controls) ([12]; 500 nM): 99.31%; remaining activity at 0.5 µM ([12]; 500 nM): 100%
